Measurements: patent publication US5296495A, “Thiazolylbenzofuran derivatives and pharmaceutical composition comprising the same” (Fujisawa Pharmaceutical Co., Ltd., priority 1991, dated 1994)
Counter-ions that a name gives are not always drawn.

Target: T1, Leukotriene D4 receptor (Cavia porcellus, UniProt Q2NNR5)
T1 construct: The trachea and lung were removed; from tissue; host or cells: guinea pig (male Hartley) trachea and lung, crude membrane fraction
T1 sequence (Q2NNR5 1-340): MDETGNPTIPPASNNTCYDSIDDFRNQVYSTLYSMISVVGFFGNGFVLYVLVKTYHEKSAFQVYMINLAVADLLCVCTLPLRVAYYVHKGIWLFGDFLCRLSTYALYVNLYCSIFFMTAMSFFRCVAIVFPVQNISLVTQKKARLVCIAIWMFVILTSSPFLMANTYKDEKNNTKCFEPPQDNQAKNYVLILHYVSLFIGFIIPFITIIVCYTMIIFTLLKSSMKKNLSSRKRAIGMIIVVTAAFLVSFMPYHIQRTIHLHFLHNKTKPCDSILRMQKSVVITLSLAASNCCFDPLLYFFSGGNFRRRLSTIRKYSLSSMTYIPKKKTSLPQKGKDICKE
Experiment: 3H-Leukotriene D4 receptor binding (guinea pig crude lung membrane)
Conditions: 3H-Leukotriene D4 (0.3 nM), pH 7.5, 25° C., 30 minutes
Protocol: ^3 H-Leukotriene D4 receptor binding (i) Test Method (a) Crude lung membrane preparation Male Hartly strain guinea pigs were sacrificed by decapitation. The trachea and lung were removed and homogenized buffer (0.25M sucrose, 10 mM Tris-HCl pH 7.5, 0.1 mM EDTA) by using Polytoron (Kinematica). The homogenate was centrifuged (1000×g, 10 min) to remove tissue clumps and the supernatant was centrifuges (14000×g, 20 min) to yield pellets. The pellets were resuspended in buffer (5 mM Tris-HCl pH 7.5), homogenized with a teflon homogenizer and centrifuged (14000×g, 20 min) to yield pellets which were referred to as crude membrane fractions. The obtained pellets were stored at -70° C. until use. (b) ^3 H-Leukotriene D4 binding to preparation membrane Frozen crude membrane fractions were thawed and resuspended in Medium 1 (10 mM Tris-HCl pH 7.5, 10 mM CaCl2, 10 mM MgCl2, 5 mM cysteine, 5 mM glycine). In binding assays, ^3 H-Leukotriene D4 (0.3 nM) and drug were incubated with 100 μl of the membrane preparation in Medium 1 at 25° C. for 30 minutes in a final volume of 500 μl. Separation of receptor-bound from free ^3 H-Leukotriene D4 is achieved by immediate filtration through Whatman GF/B filters under vacuum and washed three times with 5 ml of ice-cold buffer (10 mM Tris-HCl pH 7.5). Non-specific binding was defined as binding in the presence of 1 μM Leukotriene D4. The radioactivity retained on rinsed filters was determined by a liquid-scintillation counter (Packerd TRI-CARB 4530).

Row | SMILES | IC50 [nM]
1 | Cc1ccccc1S(=O)(=O)NC(=O)c1ccccc1COc1ccc2oc(-c3nc(C(C)(C)C)cs3)cc2c1 [Example 18, 4-tert-butyl-2-{5-[2-(2-methylbenzenesulfonamidocarbonyl)phenylmethoxy]benzofuran-2-yl}thiazole] | 48.8
2 | CC(C)(C)c1csc(-c2cc3cc(OCc4ccccc4Cc4nnn[nH]4)ccc3o2)n1 [Example 12, 5-{2-(2-(4-tert-butylthiazol-2-yl)benzofuran-5-yloxymethyl]phenylmethyl}-1H-tetrazole] | 38.2
3 | CC(C)(Cc1ccc2oc(-c3nc(C(C)(C)C)cs3)cc2c1)C(=O)Nc1nnn[nH]1 [19-2), 4-tert-Butyl-2-[5-{2-methyl-2-(1H-tetrazol-5-yl)carbamoylpropyl}benzofuran-2-yl]thiazole] | 67.7
4 | CC(C)(C)c1csc(-c2cc3cc(OCc4ccccc4CC(=O)O)ccc3o2)n1 [Example 51, 4-tert-butyl-2-[5-(2-carboxymethylphenylmethoxy)benzofuran-2-yl]thiazole hydrochloride] | 13.8
5 | CC(C)(C)c1csc(-c2cc3cc(OCc4cccc(-c5nnn[nH]5)c4)ccc3o2)n1 [13-2), 5-{3-[2-(4-tert-Butylthiazol-2-yl)benzofuran-5-yloxymethyl]phenyl}-1H-tetrazole] | 17.8
